Where two headings read alike, the source gives them in different places.
Tests used:
[1] = molecular target: T1, ERα (Homo sapiens, UniProt P03372); settings: for IC50: read-out: TR-FRET ERα IC50, displacement of fluorescent-labeled E2 from the LBD of ERα; for RBA ERα: relative binding affinity compared to E2 (100%)
T1 sequence (P03372 311-547 limits assumed): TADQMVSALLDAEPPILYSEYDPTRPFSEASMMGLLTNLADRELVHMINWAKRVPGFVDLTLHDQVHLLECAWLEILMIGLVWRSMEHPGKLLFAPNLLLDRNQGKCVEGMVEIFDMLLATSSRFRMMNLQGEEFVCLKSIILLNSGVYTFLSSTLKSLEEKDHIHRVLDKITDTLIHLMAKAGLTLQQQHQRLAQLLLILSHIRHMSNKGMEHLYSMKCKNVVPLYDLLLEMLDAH
Procedure: (§1) LanthaScreen TR-FRET ER alpha/beta competitive binding assays (Invitrogen, Carlsbad) were used to investigate the binding affinity to the isolated receptors according to the manufacturer′s protocols. Measurement was performed with an Enspire multimode plate reader (PerkinElmer Life Sciences, Waltham). Calculations were performed with Excel (Microsoft, Redmond) and GraphPad Prism (GraphPad Software, San Diego).

[2] = molecular target: T2, ERβ (Homo sapiens, UniProt Q92731); settings: for IC50: read-out: TR-FRET ERβ IC50, displacement of fluorescent-labeled E2 from the LBD of ERβ; for RBA ERβ: relative binding affinity compared to E2 (100%)
Target sequence in this assay (Q92731 264-498 limits assumed): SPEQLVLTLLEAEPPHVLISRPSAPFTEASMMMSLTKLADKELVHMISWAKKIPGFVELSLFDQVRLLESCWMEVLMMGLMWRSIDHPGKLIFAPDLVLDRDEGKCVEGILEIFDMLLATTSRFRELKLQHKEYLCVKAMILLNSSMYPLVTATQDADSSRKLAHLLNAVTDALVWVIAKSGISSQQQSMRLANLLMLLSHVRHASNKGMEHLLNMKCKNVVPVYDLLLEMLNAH
Procedure: as §1

[3] = system: COS-7 cells; experiment: Cellular uptake into COS-7 cells (fluorometry, related to protein content); type: in vitro ADME, African green monkey; settings: 10 μM, after 4 h, nmol compound/mg protein
Procedure: (§2) The compounds were incubated at a concentration of 10 μM with either MCF-7 or COS-7 cells, and the intracellular amount, determined by fluorometry, was related to the protein content.[42]
(§3) The determination of the cellular uptake in MCF-7 and COS-7 cells was performed as already described.[24] Measurement was conducted with the Enspire multimode plate reader.

[4] = system: MCF-7 cells; experiment: Cellular uptake into MCF-7 cells (fluorometry, related to protein content); type: in vitro ADME; settings: 10 μM, after 4 h (saturation), nmol compound/mg protein
Procedure: as §2, §3

[5] = molecular target: T3, ERα (Homo sapiens, UniProt P03372); experiment: In-Cell Western immunoassay, ERα levels in MCF-7 cells; type: cell-based; settings: for Emax at 1 µM: MCF7, read-out: % efficacy [1 μM], downregulation of ERα compared to fulvestrant (100%), MCF-7, 1 μM
T3 sequence (P03372 1-595): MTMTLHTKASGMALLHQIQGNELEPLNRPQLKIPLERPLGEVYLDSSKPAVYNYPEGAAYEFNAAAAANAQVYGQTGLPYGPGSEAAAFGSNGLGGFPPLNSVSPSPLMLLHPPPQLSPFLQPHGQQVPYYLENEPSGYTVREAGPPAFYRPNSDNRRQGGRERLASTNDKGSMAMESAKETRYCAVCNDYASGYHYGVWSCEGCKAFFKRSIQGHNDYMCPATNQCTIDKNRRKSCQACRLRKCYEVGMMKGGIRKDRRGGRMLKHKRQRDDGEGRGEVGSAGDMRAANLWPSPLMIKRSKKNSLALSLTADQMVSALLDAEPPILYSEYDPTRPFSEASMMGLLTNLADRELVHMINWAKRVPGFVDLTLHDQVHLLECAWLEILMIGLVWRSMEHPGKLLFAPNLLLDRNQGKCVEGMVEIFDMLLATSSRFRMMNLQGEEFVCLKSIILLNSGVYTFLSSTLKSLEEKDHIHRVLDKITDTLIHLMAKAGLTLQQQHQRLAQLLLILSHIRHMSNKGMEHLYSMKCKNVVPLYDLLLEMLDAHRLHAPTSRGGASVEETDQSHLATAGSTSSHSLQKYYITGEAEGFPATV
Procedure: Degradation was evaluated with the CellTagTM 700 In-Cell Western kit (LI-COR, Lincoln) according to the manufacturer’s protocol. MCF-7 cells were treated, and calculation was performed as previously described.[24]

[6] = system: MCF-7TamR cells; experiment: Crystal violet assay, MCF-7TamR cells; type: cell-based
[7] = system: MDA-MB-231 cells; experiment: Crystal violet assay, MDA-MB-231 cells; type: cell-based
[8] = molecular target: T3, ERα; experiment: Luciferase reporter gene assay (transactivation), U2OS cells transfected with pSG5-ERα; type: cell-based; settings: inhibition of E2-induced (0.03 nM) transactivation
[9] = molecular target: T2, ERβ; experiment: Luciferase reporter gene assay (transactivation), U2OS cells transfected with pSG5-ERβ; type: cell-based; settings: inhibition of E2-induced (0.3 nM) transactivation
Target sequence in this assay (Q92731 whole entry, the tested form may be a part): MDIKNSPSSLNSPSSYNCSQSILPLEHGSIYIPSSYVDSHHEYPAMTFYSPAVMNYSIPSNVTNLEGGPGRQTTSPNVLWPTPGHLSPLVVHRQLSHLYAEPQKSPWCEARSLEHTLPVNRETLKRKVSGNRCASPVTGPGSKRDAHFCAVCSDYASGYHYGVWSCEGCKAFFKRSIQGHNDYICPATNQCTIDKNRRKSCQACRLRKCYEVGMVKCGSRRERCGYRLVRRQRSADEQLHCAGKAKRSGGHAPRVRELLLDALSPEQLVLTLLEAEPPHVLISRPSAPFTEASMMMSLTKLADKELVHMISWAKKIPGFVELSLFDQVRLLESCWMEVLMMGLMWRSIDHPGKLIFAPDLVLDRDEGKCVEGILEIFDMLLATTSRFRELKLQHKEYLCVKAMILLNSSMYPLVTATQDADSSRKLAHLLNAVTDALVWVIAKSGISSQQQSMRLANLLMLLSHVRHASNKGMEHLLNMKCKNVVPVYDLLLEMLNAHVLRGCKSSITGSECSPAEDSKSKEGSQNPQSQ

[10] = 0.5 mM, methanol/2× PBS (75:25), 37 °C, 72 h
Source text: For the interpretation of the biological results, it is necessary to obtain information about the isomerization by simulating physiological conditions.

Compound | IC50 [1] | RBA ERα [1] | IC50 [2] | RBA ERβ [2] | cellular uptake, COS-7 cells [3] | cellular uptake, MCF-7 cells [4] | Emax at 1 µM [5] | T/Ccorr MCF-7TamR [6] | T/Ccorr MDA-MB-231 [7] | IC50 [8] | IC50 [9] | amount of the E isomer [10] | % ERα remaining [1 μM] ([5]; MCF-7 cells, 24 h, 1 μM, compared to the solvent control (DMSO)) | % efficacy [1 μM] ([5]; downregulation of ERα compared to fulvestrant (100%), MCF-7, 1 μM)
CCC(=C(c1ccc(O)cc1)c1ccc(/C=C/C(=O)NCCCNC(=O)CCCn2c(=S)[nH]c3ccccc3c2=O)cc1)c1ccccc1 (mixture of isomers) [Compound 15] | 4.01 ± 1.9 nM | 8.2% | 12.6 ± 4.8 nM | 5.9% | 1.6 nmol/mg | 2.8 nmol/mg | 60% | about 40% | 20% | 30.2 ± 14.3 nM | 4.1 ± 0.6 nM |  |  | 
CCC(=C(c1ccc(O)cc1)c1ccc(/C=C/C(=O)NCCCNC(=O)c2ccc(N3CCN(C(=O)CCCn4c(=S)[nH]c5ccccc5c4=O)CC3)cc2)cc1)c1ccccc1 (mixture of isomers) [Compound 17] | 4.63 ± 1.74 nM | 7.1% | 18.5 ± 4.8 nM | 4% |  |  | 94.5% | about 40% |  | 104 ± 14 nM | 48 ± 12 nM | 25% | 5.5 ± 5.0% | 95%

From publication PMC8279417 (Journal of Medicinal Chemistry, 2021)
